Target: T1, Dimer of Gag-Pol polyprotein [489-587] (Human immunodeficiency virus 1, UniProt P12497)
T1 construct: 489-587
Assay: Protease Inhibition Assay
Conditions: pH 5.6; 37 °C
Experimental: Protease activity was measured by continuous chromogenic assay. The chromogenic peptide His-Lys-Ala-Arg-Val-Leu- (p-NO2-Phe)-Glu-Ala-Nleu-Ser (Bachem) was used as a substrate. Reactions were followed by the decrease of absorbance at 300 nm measured by spectrophotometer. Experimental results were analyzed by the nonlinear regression analysis, using a mathematical model for tight binding inhibitors.

Row | Structure (SMILES) | Ki [µM]
1 | CC(C)(c1ccccc1)N(CCO)C(=O)c1ccccc1CCC(O)Cc1ccccc1C(=O)N(CCO)C(C)(C)c1ccccc1 (stereo not drawn) [2-(3-hydroxy-4-{2-[(2-hydroxyethyl)(2-phenylpropan-2-yl)carbamoyl]phenyl}butyl)-N-(2-hydroxyethyl)-N-(2-phenylpropan-2-yl)benzamide] | 0.022
2 | CC(C)(C)NC(=O)c1ccccc1CCC(O)Cc1ccccc1C(=O)NC(C)(C)C (stereo not drawn) [2-Butanol deriv. 8] | 24
3 | CCC1(N(CCO)C(=O)c2ccccc2CC[C@@H](O)Cc2ccc(C)cc2C(=O)N(CCO)C(C)(C)c2ccccc2)CCCC1 [2-[(2R)-4-{2-[(1-ethylcyclopentyl)(2-hydroxyethyl)carbamoyl]phenyl}-2-hydroxybutyl]-N-(2-hydroxyethyl)-5-methyl-N-(2-phenylpropan-2-yl)benzamide] | 0.0048
4 | CCC1(N(CCO)C(=O)c2ccccc2CC[C@H](O)Cc2ccc(C)cc2C(=O)N(CCO)C(C)(C)c2ccccc2)CCCC1 [2-[(2S)-4-{2-[(1-ethylcyclopentyl)(2-hydroxyethyl)carbamoyl]phenyl}-2-hydroxybutyl]-N-(2-hydroxyethyl)-5-methyl-N-(2-phenylpropan-2-yl)benzamide] | 1.4
5 | CC(C)(C)NC(=O)c1ccccc1C[C@@H](O)[C@H](Cc1ccccc1)NC(=O)[C@H](CC(N)=O)NC(=O)c1ccc2ccccc2n1 [(2S)-N-[(2S,3R)-4-[2-(tert-butylcarbamoyl)phenyl]-3-hydroxy-1-phenylbutan-2-yl]-2-(quinolin-2-ylformamido)butanediamide] | 0.0016
6 | CC(C)(C)N(CCO)C(=O)c1ccccc1CCC(O)Cc1ccccc1C(=O)N(CCO)C(C)(C)c1ccccc1 (stereo not drawn) [N-tert-butyl-2-(3-hydroxy-4-{2-[(2-hydroxyethyl)(2-phenylpropan-2-yl)carbamoyl]phenyl}butyl)-N-(2-hydroxyethyl)benzamide] | 0.09
7 | CC(C)(C)NC(=O)c1ccccc1CC(O)CSc1ccccc1NC(=O)C(C)(C)C (stereo not drawn) [N-tert-butyl-2-(3-{[2-(2,2-dimethylpropanamido)phenyl]sulfanyl}-2-hydroxypropyl)benzamide] | > 100
8 | CC(C)(C)NC(=O)c1ccccc1CC(O)CSc1ccccc1C(=O)NC(C)(C)C (stereo not drawn) [N-tert-butyl-2-(3-{[2-(tert-butylcarbamoyl)phenyl]sulfanyl}-2-hydroxypropyl)benzamide] | 83
9 | CC(C)(C)NC(=O)c1c(CC[C@H](O)Cc2ccc3ccccc3c2C(=O)NC(C)(C)C)ccc2ccccc12 [N-tert-butyl-2-[(3S)-4-[1-(tert-butylcarbamoyl)naphthalen-2-yl]-3-hydroxybutyl]naphthalene-1-carboxamide] | 0.481
10 | CC(C)(C)NC(=O)c1ccccc1CCC(O)Cc1ccc2ccccc2c1C(=O)NC(C)(C)C (stereo not drawn) [N-tert-butyl-2-{4-[2-(tert-butylcarbamoyl)phenyl]-2-hydroxybutyl}naphthalene-1-carboxamide] | 2.2
11 | CC(C)(C)NC(=O)c1ccccc1SCC(O)Cc1ccccc1C(=O)N(CCO)C(C)(C)C (stereo not drawn) [Tertiary Amide deriv. 6] | 34
12 | CCC1(N(CCO)C(=O)c2ccccc2CCC(O)Cc2ccc(Cl)cc2C(=O)N(CCO)C(C)(C)c2ccccc2)CCCC1 (stereo not drawn) [Tertiary Amide deriv. 43cb] | 0.002
13 | CC(C)(C)NC(=O)c1c(CC[C@@H](O)Cc2ccc3ccccc3c2C(=O)NC(C)(C)C)ccc2ccccc12 [diarylbutanol deriv. 7R] | 25
